The source of these data is patent publication US20240217990A1 (Gilead Sciences, Inc., priority 2021, published 2024).

The target of one experiment is T1, TLR8 (Homo sapiens, UniProt Q9NR97).
T1 construct: Human peripheral blood mononuclear cells (PBMCs) consist of lymphocytes, monocytes and dendritic cells that express TLR7, TLR8 and TLR9; endogenous in cells; host or cells: cryopreserved human PBMCs from healthy donors
T1 sequence (Q9NR97 27-1041): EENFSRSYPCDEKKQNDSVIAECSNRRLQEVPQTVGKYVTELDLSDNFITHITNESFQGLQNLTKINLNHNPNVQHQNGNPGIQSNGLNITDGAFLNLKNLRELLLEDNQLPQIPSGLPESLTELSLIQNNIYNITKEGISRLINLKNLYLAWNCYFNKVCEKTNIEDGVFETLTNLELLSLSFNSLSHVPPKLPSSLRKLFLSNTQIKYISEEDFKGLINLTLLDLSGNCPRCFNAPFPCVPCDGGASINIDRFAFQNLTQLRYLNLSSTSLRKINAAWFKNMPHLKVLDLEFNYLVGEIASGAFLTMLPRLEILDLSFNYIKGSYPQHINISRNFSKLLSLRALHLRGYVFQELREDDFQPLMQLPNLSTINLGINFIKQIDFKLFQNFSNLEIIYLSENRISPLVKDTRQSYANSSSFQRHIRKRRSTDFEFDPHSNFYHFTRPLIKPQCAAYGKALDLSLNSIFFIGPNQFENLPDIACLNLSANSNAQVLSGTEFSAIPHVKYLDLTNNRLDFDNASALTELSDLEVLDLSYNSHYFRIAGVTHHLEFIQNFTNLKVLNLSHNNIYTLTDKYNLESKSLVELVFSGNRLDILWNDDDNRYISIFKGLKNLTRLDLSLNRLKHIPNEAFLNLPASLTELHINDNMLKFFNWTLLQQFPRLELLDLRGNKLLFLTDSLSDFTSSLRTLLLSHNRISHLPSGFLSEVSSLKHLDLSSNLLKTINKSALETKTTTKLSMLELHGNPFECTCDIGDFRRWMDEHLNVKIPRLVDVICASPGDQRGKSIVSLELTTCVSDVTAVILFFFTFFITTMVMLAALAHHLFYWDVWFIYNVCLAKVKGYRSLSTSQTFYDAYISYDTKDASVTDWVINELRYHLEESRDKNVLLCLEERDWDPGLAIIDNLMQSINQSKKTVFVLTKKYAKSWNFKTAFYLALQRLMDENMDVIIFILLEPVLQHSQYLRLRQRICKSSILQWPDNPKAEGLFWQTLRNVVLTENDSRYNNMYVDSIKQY
Briefly: TLR8 human PBMC cell-based assay (antagonist, Compound A stimulated cytokine release). Particulars: human PBMCs; TLR8 agonist Compound A 800 nM, 6 hours; cytokines (TNFa and IL 12p40) in supernatant; read-out: TLR-8 EC50. The procedure, abridged:
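Cryopreserved donor PBMCs (100,000/well, RPMI + 10% FBS) were preincubated 1 h with antagonist (10-point dose response, quadruplicate), then stimulated with Compound A (800 nM final) for 6 h at 37 °C. TNFa and IL-12p40 in supernatants were measured by electrochemiluminescence; sigmoidal fits gave EC50.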

Another experiment deals with T2, TLR7 (Homo sapiens, UniProt Q9NYK1).
T2 construct: Human peripheral blood mononuclear cells (PBMCs) consist of lymphocytes, monocytes and dendritic cells that express TLR7, TLR8 and TLR9; endogenous in cells; host or cells: cryopreserved human PBMCs from healthy donors
T2 sequence (Q9NYK1 27-1049): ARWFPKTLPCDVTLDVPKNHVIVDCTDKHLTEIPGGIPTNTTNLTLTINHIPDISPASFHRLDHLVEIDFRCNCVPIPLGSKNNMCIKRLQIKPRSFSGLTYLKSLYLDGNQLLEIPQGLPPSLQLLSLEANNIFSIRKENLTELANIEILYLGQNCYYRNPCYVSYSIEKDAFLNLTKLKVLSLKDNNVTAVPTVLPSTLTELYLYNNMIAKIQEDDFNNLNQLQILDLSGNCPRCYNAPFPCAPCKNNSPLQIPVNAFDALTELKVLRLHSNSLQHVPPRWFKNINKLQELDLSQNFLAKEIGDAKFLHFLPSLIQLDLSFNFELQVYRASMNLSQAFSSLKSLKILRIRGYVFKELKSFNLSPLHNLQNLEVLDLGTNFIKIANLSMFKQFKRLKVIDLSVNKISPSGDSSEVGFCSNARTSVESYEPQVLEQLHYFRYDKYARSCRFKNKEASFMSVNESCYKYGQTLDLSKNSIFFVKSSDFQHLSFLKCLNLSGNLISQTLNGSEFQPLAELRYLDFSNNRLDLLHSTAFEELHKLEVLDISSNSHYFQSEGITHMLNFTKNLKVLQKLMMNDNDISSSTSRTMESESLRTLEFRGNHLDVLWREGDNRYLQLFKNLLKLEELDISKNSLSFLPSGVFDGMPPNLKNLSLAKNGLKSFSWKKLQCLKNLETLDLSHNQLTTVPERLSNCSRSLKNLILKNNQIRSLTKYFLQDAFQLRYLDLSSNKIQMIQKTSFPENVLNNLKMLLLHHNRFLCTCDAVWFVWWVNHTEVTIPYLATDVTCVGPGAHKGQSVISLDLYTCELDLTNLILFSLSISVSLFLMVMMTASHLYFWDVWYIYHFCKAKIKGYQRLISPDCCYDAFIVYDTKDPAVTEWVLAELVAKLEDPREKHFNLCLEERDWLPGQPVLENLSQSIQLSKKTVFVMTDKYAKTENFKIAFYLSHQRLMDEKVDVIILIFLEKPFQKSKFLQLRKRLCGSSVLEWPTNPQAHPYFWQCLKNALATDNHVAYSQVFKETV
Briefly: TLR7 human PBMC cell-based assay (antagonist, GS-986 stimulated cytokine release). Particulars: human PBMCs; TLR7 agonist GS-986 400 nM, 6 hours; cytokines (IL-6 and IFNα) in supernatant; read-out: TLR-7 EC50. The procedure, abridged:
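Cryopreserved healthy-donor PBMCs (100,000/well, RPMI-1640 + 10% FBS) pre-incubated 1 h at 37 °C with antagonist (10-point dose response, quadruplicate), then stimulated 6 h with GS-986 at 400 nM final. Supernatant IL-6 and IFNα measured by electrochemiluminescence immunoassay; EC50 from sigmoidal fit.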

On to `Cc1cc(-c2[nH]c3cc(C(=O)N(C)C4CCC(N5CC(OC(F)(F)F)C5)CC4)sc3c2C(C)C)cn2ncnc12` (stereo not shown) [Example 251], for which the EC50 on TLR8 was found to be 105 nM; at TLR7, 59.6 nM.

Regarding `Cc1cc(-c2[nH]c3cc(C(=O)N4C[C@@H]5NCCO[C@@H]5C4)sc3c2C(C)C)cn2ncnc12` [Example 132], the 50% effective concentration (EC50) at TLR8 was found to be 26.9 nM; at TLR7, 33.7 nM.

On to `Cc1cc(-c2[nH]c3cc(C(=O)N(C)[C@@H]4CNC[C@H]4F)sc3c2C(C)C)cn2ncnc12` [Example 60], for which the concentration giving a half-maximal response (EC50) is 30.8 nM at TLR8 and 4.1 nM at TLR7.

In the case of `Cc1cc(-c2[nH]c3cc(-c4nnc(C5CCC(N)CC5)o4)sc3c2C(C)C)cc(C)n1` (stereo not shown) [Example 71], the EC50 is 23.6 nM on TLR8 and 22.3 nM at TLR7.

Regarding `Cc1cc(-c2[nH]c3cc(C4CCC(N5CCC(O)C5)CC4)sc3c2C(C)C)cn2ncnc12` (stereo not shown) [Example 257], the EC50 is 9.6 nM on TLR8 and 0.4 nM on TLR7.

In the case of `Cc1c(-c2[nH]c3cc(C(=O)N4CCNC(C)(C)C4)sc3c2C(C)C)cn2ncnc2c1C` [Example 86], the 50% effective concentration (EC50) on TLR8 is 0.3 nM; on TLR7 it was 1 nM.

With `Cc1cc(-c2[nH]c3cc(C4CCN(C(=O)C5CCCN(C)C5)CC4)sc3c2C(C)C)cn2ncnc12` (stereo not shown) [Example 203], the 50% effective concentration (EC50) was determined as 5.6 nM on TLR8 and 0.4 nM at TLR7.

In the case of `Cc1cc(-c2[nH]c3cc(C4CCC5(CCN(CC(N)=O)C5)C4)sc3c2C(C)C)cn2ncnc12` (stereo not shown) [Example 280], the values for the concentration for a half-maximal effect (EC50) on TLR8 and on TLR7 were 7.51 nM and 2.89 nM, respectively.

As for `Cc1cc(-c2[nH]c3cc(C(=O)N(C)C4CCC(N5CC6(COC6)C5)CC4)sc3c2C(C)C)cn2ncnc12` (stereo not shown) [Example 253], the half-maximal effective concentration (EC50) on TLR8 worked out at 8.5 nM; on TLR7, 7.5 nM.

As to `Cc1nn(C2CCNCC2)cc1-c1cc2[nH]c(-c3cc(C)c4ncnn4c3)c(C(C)C)c2s1` [Example 220], the EC50 is 11.2 nM on TLR8 and 1.2 nM at TLR7.

Consider `Cc1c(-c2[nH]c3cc(C(=O)N(C)C4CCNCC4)sc3c2C(C)C)cn2ncnc2c1C` [Example 150], for which the concentration giving a half-maximal response (EC50) was found to be 2.5 nM at TLR8 and 1 nM on TLR7.

Regarding `Cc1cc(-c2[nH]c3cc(C(=O)N4CCN[C@@H](c5ccccc5)C4)sc3c2C(C)C)cn2ncnc12` [Example 119], the EC50 at TLR8 amounted to 0.3 nM; on TLR7, 42.4 nM.

With `Cc1cc(-c2[nH]c3cc(C(=O)N(C)[C@H]4CCNC4)sc3c2C(C)C)cn2ncnc12` [Example 39], the EC50 is 11.2 nM at TLR8 and 0.6 nM at TLR7.

Regarding `Cc1cc(-c2[nH]c3cc(C4CCN(C(=O)[C@@H]5COCCN5)CC4)sc3c2C(C)C)cn2ncnc12` [Example 291], the EC50 at TLR8 came out at 6.11 nM; at TLR7 it was 0.37 nM.

For `Cc1cc(-c2[nH]c3cc(C(=O)N(C4CCNCC4)C4CC4)sc3c2C(C)C)cn2ncnc12` [Example 143], the concentration giving a half-maximal response (EC50) at TLR8 is 27 nM; on TLR7, 0.7 nM.

Take `Cc1cc(-c2[nH]c3cc(-c4ccc(N5CCNCC5)nc4)sc3c2C(C)C)cn2ncnc12` [Example 210]: the EC50 turned out to be 2.3 nM at TLR8 and 0.5 nM at TLR7.

For the molecule `Cc1cc(-c2[nH]c3cc(-c4ccc5c(c4)CC(N)C5)sc3c2C(C)C)cn2ncnc12` (stereo not shown) [Example 227], the EC50 stood at 0.7 nM on TLR8 and 0.6 nM at TLR7.

Take `Cc1cc(-c2[nH]c3cc(C4CCN(C(=O)[C@H]5CCCN5C)CC4)sc3c2C(C)C)cn2ncnc12` [Example 199]: the EC50 on TLR8 was 5.3 nM; at TLR7 it was 3.9 nM.

On to `Cc1cc(-c2[nH]c3cc(C4CCC(C(=O)N5CCNCC5)CC4)sc3c2C(C)C)cn2ncnc12` (stereo not shown) [Example 300], for which the half-maximal effective concentration (EC50) on TLR8 turned out to be 11.2 nM; at TLR7, 0.31 nM.

Regarding `Cc1cc(-c2[nH]c3cc(-c4nc5ccc(N6CCNCC6)cc5n4C)sc3c2C(C)C)cn2ncnc12` [Example 238], the half-maximal effective concentration (EC50) came to 14.2 nM at TLR8 and 2.8 nM at TLR7.

In the case of `Cc1cc(-c2[nH]c3cc(C(=O)N(C)CC4CCN(CC(N)=O)CC4)sc3c2C(C)C)cn2ncnc12` [Example 174], the EC50 on TLR8 was determined as 16.8 nM; on TLR7, 11.4 nM.

For the molecule `Cc1cc(-c2[nH]c3cc(C(=O)N4C[C@H]5NCCO[C@@H]5C4)sc3c2C(C)C)cn2ncnc12` [Example 131], the EC50 on TLR8 is 6.7 nM; on TLR7 it was 21 nM.

For `Cc1c(-c2[nH]c3cc(-c4cnc5c(c4)CNCC5)sc3c2C(C)C)cn2ncnc2c1C` [Example 222], the EC50 on TLR8 stood at 0.7 nM; at TLR7, 3.1 nM.

Consider `Cc1cc(-c2[nH]c3cc(C4CCC5(CC4)CN(C(=O)CN(C)C)C5)sc3c2C(C)C)cn2ncnc12` [Example 185], for which the concentration for a half-maximal effect (EC50) on TLR8 worked out at 8.7 nM; on TLR7, 0.2 nM.

With `Cc1cc(-c2[nH]c3cc(C4=NCC5(CCNCC5)O4)sc3c2C(C)C)cn2ncnc12` [Example 70], the 50% effective concentration (EC50) on TLR8 came out at 9.3 nM; at TLR7, 0.2 nM.

`Cc1cc(-c2[nH]c3cc(C4CCN(CC(N)=O)C5(CCC5)C4)sc3c2C(C)C)cn2ncnc12` (stereo not shown) [Example 301]: the EC50 at TLR8 was found to be 217 nM; on TLR7, 52 nM.

Take `Cc1cc(-c2[nH]c3cc(C(=O)N4CCC[C@@H]5NCC[C@@H]54)sc3c2C(C)C)cn2ncnc12` [Example 93]: the figures for the EC50 on TLR8 and on TLR7 were 19.8 nM and 0.6 nM, respectively.

With `Cc1cc(-c2[nH]c3cc(-c4cnc5c(c4)CCNC5)sc3c2C(C)C)cn2ncnc12` [Example 218], the EC50 at TLR8 came to 1 nM; on TLR7, 3.3 nM.

`Cc1cc(-c2[nH]c3cc(C4CCN(C(=O)C5CCN(C)C5)CC4)sc3c2C(C)C)cn2ncnc12` (stereo not shown) [Example 201]: the EC50 on TLR8 turned out to be 8.6 nM; at TLR7, 0.7 nM.

`Cc1cc(N2CCNCC2)ncc1-c1cc2[nH]c(-c3cc(C)c4ncnn4c3)c(C(C)C)c2s1` [Example 216]: the EC50 at TLR8 is 3.1 nM; on TLR7, 0.4 nM.

Consider `Cc1cc(-c2[nH]c3cc(C(=O)N4CCC5CCNC5C4)sc3c2C(C)C)cc(C)n1` (stereo not shown) [Example 30], for which the figures for the EC50 on TLR8 and on TLR7 were 30 nM and 35.9 nM, respectively.

Turning to `Cc1cc(-c2[nH]c3cc(C4CCC5(CC4)CN(C(=O)[C@H]4COCCN4)C5)sc3c2C(C)C)cn2ncnc12` [Example 284], the EC50 on TLR8 stood at 14.2 nM; at TLR7, 0.23 nM.

By EC50 is commonly meant the concentration that produces a half-maximal response.
